Test results taken from patent US9617244B2, “Antibacterial quinoline derivatives” (JANSSEN PHARMACEUTICA NV, priority 2012, dated 2017).
Where a name gives a salt, the structure may show the parent alone.

Row | melting point [°C] | SMILES
1 | 166 | COc1nc2ccc(Cl)cc2cc1C(c1ccc(Cl)cc1)C1(O)CCNCC1c1ccccc1 (stereo not shown) (as salt: fumarate) [Compound 412]
2 | > 250 | COc1nc2ccccc2cc1C(c1ccccc1)C1(O)CCNC(c2ccccc2)C1 (stereo not shown) (as salt: fumarate) [Compound 413]
3 | 196 | COc1nc2ccccc2cc1C(c1ccccc1)C1(O)CCNC(c2ccccc2)C1 (stereo not shown) (as salt: fumarate) [Compound 414]
4 | 160 | COc1nc2ccccc2cc1C(c1ccccc1)C1(O)CCNC(c2ccccc2)C1 (stereo not shown) (as salt: fumarate) [Compound 415]
5 | 160 to 162 | COc1nc2ccccc2cc1C(c1ccccc1)C1(O)CCNC(c2ccc(F)cc2C)C1 (stereo not shown) (as salt: fumarate) [Compound 416]
6 | 164 to 166 | COc1nc2ccc(F)cc2cc1C(c1ccc(S(C)(=O)=O)cc1)C1(O)CCNC(c2ccc(F)cc2C)C1 (stereo not shown) (as salt: fumarate) [Compound 418]
7 | 174 | COc1nc2ccc(Br)cc2cc1C(c1cccnc1)C1(O)CCNC(Cc2ccccc2)C1 (stereo not shown) (as salt: fumarate) [Compound 427]
8 | 217 | COc1nc2ccc(Br)cc2cc1C(c1cccnc1)C1(O)CCNC(Cc2ccccc2)C1 (stereo not shown) (as salt: fumarate) [Compound 428]
9 | > 260 | COc1nc2ccc(Br)cc2cc1C(n1cccn1)C1(O)CCNC(Cc2ccccc2)C1 (stereo not shown) (as salt: fumarate) [Compound 429]
10 | 184 | COc1nc2ccc(Cl)cc2cc1C(c1ccc(Cl)cc1)C1(O)CCNC(c2ccc3ccccc3c2)C1 (stereo not shown) (as salt: fumarate) [Compound 430]
11 | 178 | COc1nc2ccc(Cl)cc2cc1C(c1ccc(Cl)cc1)C1(O)CCNC(c2ccc3ccccc3c2)C1 (stereo not shown) (as salt: fumarate) [Compound 431]
12 | 167 | COc1nc2ccc(Cl)cc2cc1C(c1ccc(Cl)cc1)C1(O)CCNC(c2ccc3ccccc3c2)C1 (stereo not shown) (as salt: fumarate) [Compound 432]
13 | > 250 | CSc1ccc2[nH]c(=O)c(C(c3ccc(Cl)cc3)C3(O)CCNC(c4ccccc4)C3)cc2c1 (stereo not shown) (as salt: hydrochloride) [Compound 230]
14 | > 250 | Cc1cc(F)ccc1C1CC(O)(C(c2ccccc2)c2cc3cc(-c4cccnc4)ccc3[nH]c2=O)CCN1 (stereo not shown) (as salt: hydrochloride) [Compound 236]
15 | > 250 | Cc1cc(F)ccc1C1CC(O)(C(c2ccccc2)c2cc3cc(S(C)(=O)=O)ccc3[nH]c2=O)CCN1 (stereo not shown) (as salt: hydrochloride) [Compound 237]
16 | > 250 | O=c1[nH]c2ccc(Cl)cc2cc1C(c1ccc(Cl)cc1)C1(O)CCNC(Cc2ccccc2)C1 (stereo not shown) (as salt: hydrochloride) [Compound 239]
17 | > 250 | O=c1[nH]c2ccc(Br)cc2cc1C(c1ccc(Cl)cc1)C1(O)CCNC(CC2CCCCC2)C1 (stereo not shown) (as salt: hydrochloride) [Compound 254]
18 | > 250 | CSc1ccc2[nH]c(=O)c(C(c3ccc(Cl)cc3)C3(O)CCNC(c4ccc(F)cc4C)C3)cc2c1 (stereo not shown) (as salt: hydrochloride) [Compound 266]
19 | > 250 | CSc1ccc2[nH]c(=O)c(C(c3ccc(Cl)cc3)C3(O)CCNC(Cc4ccc(F)cc4)C3)cc2c1 (stereo not shown) (as salt: hydrochloride) [Compound 281]
20 | 206 | CSc1ccc2[nH]c(=O)c(C(c3ccc(Cl)cc3)C3(O)CCNC(Cc4ccc(F)cc4)C3)cc2c1 (stereo not shown) (as salt: hydrochloride) [Compound 282]
21 | > 250 | CSc1ccc2[nH]c(=O)c(C(c3ccc(Cl)cc3)C3(O)CCNC(CC4CCCCC4)C3)cc2c1 (stereo not shown) (as salt: hydrochloride) [Compound 295]

More lines, now with the values behind:

Row | SMILES | melting point [°C]
22 | COc1nc2ccccc2cc1C(c1ccccc1)C1(O)CCNC(c2ccc(F)cc2C)C1 (stereo not shown) (as salt: fumaric acid salt) [Compound 16] | 166 to 168
23 | O=c1[nH]c2ccc(Br)cc2cc1C(c1ccc(Cl)cc1)C1(O)CCNC(Cc2ccc(F)c(F)c2)C1 (stereo not shown) (as salt: hydrochloride) [Compound 40] | 224
24 | O=c1[nH]c2ccc(Br)cc2cc1C(c1ccc(Cl)cc1)C1(O)CCNCC1Cc1cccc(F)c1 (stereo not shown) (as salt: hydrochloride) [Compound 49] | 183
25 | O=c1[nH]c2ccc(Br)cc2cc1C(c1cccc(Cl)c1)C1(O)CCNC(Cc2ccccc2)C1 (stereo not shown) (as salt: hydrochloride) [Compound 85] | > 260
26 | Cc1cc(F)ccc1C1CC(O)(C(c2ccc(Cl)cc2)c2cc3cc(Br)ccc3[nH]c2=O)CCN1 (stereo not shown) (as salt: hydrochloride) [Compound 106] | > 250
27 | O=c1[nH]c2ccc(Br)cc2cc1[C@@H](c1ccc(Cl)cc1)[C@]1(O)CCNC(Cc2ccccc2)C1 (stereo partly shown) (as salt: hydrochloride) [Compound 121] | > 260
28 | O=c1[nH]c2ccc(Br)cc2cc1C(c1ccc(Cl)cc1)C1(O)CCNC(Cc2ccc(F)c(F)c2)C1 (stereo not shown) (as salt: hydrochloride) [Compound 126] | > 260
29 | CC1CC(O)(C(c2ccc(Cl)cc2)c2cc3cc(Br)ccc3[nH]c2=O)CCN1 (stereo not shown) (as salt: hydrochloride) [Compound 129] | 240
30 | CC1CC(O)(C(c2ccc(Cl)cc2)c2cc3cc(Br)ccc3[nH]c2=O)CCN1 (stereo not shown) (as salt: hydrochloride) [Compound 130] | 200
31 | CC1CC(O)(C(c2ccc(Cl)cc2)c2cc3cc(Br)ccc3[nH]c2=O)CCN1 (stereo not shown) (as salt: hydrochloride) [Compound 131] | 241
32 | CC1CC(O)(C(c2ccc(Cl)cc2)c2cc3cc(Br)ccc3[nH]c2=O)CCN1 (stereo not shown) (as salt: hydrochloride) [Compound 132] | 244
33 | O=c1[nH]c2ccc(Br)cc2cc1C(c1ccc(Cl)cc1)C1(O)CCNC(Cc2ccc(F)c(F)c2)C1 (stereo not shown) (as salt: hydrochloride) [Compound 134] | 233
34 | Cc1cc(F)ccc1C1CC(O)(C(c2cccc(Cl)c2)c2cc3cc(Br)ccc3[nH]c2=O)CCN1 (stereo not shown) (as salt: hydrochloride) [Compound 135] | > 250
35 | Cc1cc(F)ccc1C1CC(O)(C(c2cccc(Cl)c2)c2cc3cc(S(C)(=O)=O)ccc3[nH]c2=O)CCN1 (stereo not shown) (as salt: hydrochloride) [Compound 159] | > 250
36 | CSc1ccc2[nH]c(=O)c(C(c3cccc(Cl)c3)C3(O)CCNC(c4ccc(F)cc4C)C3)cc2c1 (stereo not shown) (as salt: hydrochloride) [Compound 160] | > 250
37 | Cc1cc(F)ccc1C1CC(O)(C(c2ccccc2)c2cc3cc(Br)ccc3[nH]c2=O)CCN1 (stereo not shown) (as salt: hydrochloride) [Compound 192] | > 250
38 | CS(=O)(=O)c1ccc2[nH]c(=O)c(C(c3ccc(Cl)cc3)C3(O)CCNC(Cc4ccc(F)c(F)c4)C3)cc2c1 (stereo not shown) (as salt: hydrochloride) [Compound 212] | > 250
39 | Cc1cc(F)ccc1C1CC(O)(C(c2ccc(Cl)cc2)c2cc3cc(S(C)(=O)=O)ccc3[nH]c2=O)CCN1 (stereo not shown) (as salt: hydrochloride) [Compound 220] | > 250
40 | O=c1[nH]c2ccc(Br)cc2cc1C(c1ccc(Cl)cc1)C1(O)CCNCC1Cc1cccc(F)c1 (stereo not shown) (as salt: hydrochloride) [Compound 229] | > 250
